Source: patent publication US20260008862A1, “Bispecific Anti-BCMA x Anti-CD3 Antibodies and Uses Thereof” (Regeneron Pharmaceuticals, Inc., priority 2018, published 2026)
pEC50: −log10 of the molar value. Read-outs that look alike come from different tables or passages of the source.

Columns and labels:
[1] = test system: BCMA-expressing NCI-H929 tumors; assay: NCI-H929 + PBMC xenogenic tumor model, immediate treatment, 4 mg/kg (Example 10); type: in vivo, mouse
Method: To determine the in vivo efficacy of BCMA×CD3 bispecific antibodies (Abs), a xenogenic tumor study was performed. Immunodeficient NOD.Cg-Prkdc^scidIl2rg^tm1Wji/SzJ (NSG) mice were subcutaneously implanted with a mixture of 10×10^6 BCMA-expressing NCI-H929 multiple myeloma cells and 0.5×10^6 human peripheral blood mononuclear cells (PBMC) isolated from a normal donor. […] The mice were administered Abs twice per week for a total of three weeks, and tumor growth was assessed over 40 days. While BCMA^+ tumors grew similarly in the vehicle-, isotype control-, and CD3-binding control-treated mice, both BCMA×CD3 Abs that were tested prevented the growth of tumors in vivo.
Implantation and measurement of syngeneic tumors: NSG mice were subcutaneously implanted with a mixture of 10×10^6 BCMA-expressing NCI-H929 multiple myeloma cells and 0.5×10^6 PBMC derived from a normal donor. […] The mice were administered Abs twice per week for a total of three weeks. Tumor growth was measured with calipers twice per week for the duration of the experiment. Mice were sacrificed 40 days after tumor implantation.
(§1) Calculation of syngeneic tumor growth and inhibition: In order to determine tumor volume by external caliper, the greatest longitudinal diameter (length in mm) and the greatest transverse diameter (width in mm) were determined. Tumor volumes based on caliper measurements were calculated by the formula: Volume (mm^3)=(length×width^2)/2.

[2] = test system: primary cynomolgus plasma cells (CD138+); assay: Autologous T cell-mediated killing of cynomolgus monkey plasma cells; type: cell-based
Method: The specific killing of enriched CD138^+ human or cynomolgus monkey plasma cells by unstimulated autologous T cells was assessed by flow cytometry. Human or cynomolgus bone marrow aspirates and blood were provided within 24 hours of harvest. CD138^+ plasma cells were enriched from bone marrow by positive selection using the EasySep™ Human CD138^+ Positive Selection kit according to the manufacturer's instructions. PBMC from whole blood were isolated by density separation. PBMC were labeled with 1 μM of Vybrant™ CFDA-SE fluorescent tracking dye. […] At the end of the culture, surviving CD138^+ plasma cells were analyzed by flow cytometry, utilizing fixable LIVE/DEAD dye and plasma cell specific cell surface markers. Percent viability was normalized to control condition (plasma cells in the presence of PBMC only). T cell activation was assessed by flow cytometry. Activation is reported as the percentage of CD2^+/CD4^+ or CD2^+/CD8^+/CD16^− T cells expressing CD25. Percent T cell activation was normalized to control condition (plasma cells in the presence of PBMC only).

[3] = test system: Jurkat/NFATLuc.3C7 cells + OPM-2 cells; assay: Jurkat/NFATLuc reporter bioassay with OPM-2 cells; type: cell-based; settings: highest RLU / lowest RLU
Method: (§2) Activity of the anti-BCMA×anti-CD3 bispecific antibodies were assessed in a Jurkat/NFATLuc reporter bioassay utilizing several cell lines with varying levels of BCMA surface expression. The Jurkat cells were engineered to express an NFAT-luciferase reporter (Jurkat/NFATLuc.3C7), and 50,000 Jurkat reporter cells were combined with 50,000 BCMA positive (Daudi, MM1-S, NCI-H929, OPM-2, RPMI-8226, MOLP-8, or Raji) or BCMA negative (HEK293) cells in Thermo Nunclon delta 96 well white microwell plates (Thermo Scientific, Cat #136102) in 50 ul of assay media (RPMI media with 10% FBS and 1% P/S/G). Three-fold serial dilutions of the BCMA×CD3 bispecific antibodies (mAb25441 D or mAb25442D), or a bivalent anti-BCMA antibody (mAb21581) were immediately added in 50 μL of assay buffer. The plates were gently agitated and incubated in a 37° C., 5% CO2 incubator for 4-6 hours. NFAT-Luciferase activity was determined using Promega One-Glo (Cat #E6130) and a Perkin Elmer Envision plate reader. RLU were plotted in GraphPad Prism using a four-parameter logistic equation over a 12-point response curve to calculate EC50 values. […] The signal to noise (S:N) is determined by taking the ratio of the highest RLU on the curve to the lowest.

[4] = test system: Jurkat/NFATLuc.3C7 cells + NCI-H929 cells; assay: Jurkat/NFATLuc reporter bioassay with NCI-H929 cells; type: cell-based; settings: highest RLU / lowest RLU
Method: as §2

MC38/BCMA tumors [5] = assay: Syngenic MC38/BCMA tumor model, combination with anti-PD-1 (Example 20); type: in vivo; settings: REGN5458 0.04 or 0.24 mg/kg plus anti-mouse PD-1 (Clone RPM1-14) 4 mg/kg
Method: (§3) Implantation and measurement of syngenic tumors: C57BL/6 mice that express human CD3deg in place of murine CD3deg (CD3-humanized mice) were subcutaneously implanted with 1×10^6 MC38 colon carcinoma cells that have been engineered to express full-length human BCMA (MC38/BCMA).
The mice were administered these Abs twice more on days 7 and 11 for a total of three doses, and tumor growth was assessed throughout the experiment.
as §1, with “syngenic” for “syngeneic”

MC38/BCMA tumors [6] = assay: Syngenic MC38/BCMA tumor model, combination with anti-PD-1, second experiment (Example 21); type: in vivo, mouse; settings: REGN5458 0.04 or 0.4 mg/kg plus anti-PD-1 4 mg/kg
Text: as §3
as §1, with “syngenic” for “syngeneic”

[7] = Cynomolgus Monkey Donor 1 plasma cells, autologous T cells, maximum

REGN5458: anti-BCMA×anti-CD3 bispecific antibody: BCMA HCVR of mAb21581 (SEQ 66), CD3 HCVR of mAb7221G (SEQ 90), common LCVR SEQ 82
Average Tumor Size (mm3) ± SEM on Day 4 [1]: 39.5 ± 9.1 mm3
Average Tumor Size (mm3) ± SEM on Day 7 [1]: 0 ± 0 mm3
Average Tumor Size (mm3) ± SEM on Day 11 [1]: 0 ± 0 mm3
Average Tumor Size (mm3) ± SEM on Day 14 [1]: 0 ± 0 mm3
Average Tumor Size (mm3) ± SEM on Day 18 [1]: 0 ± 0 mm3
Average Tumor Size (mm3) ± SEM on Day 21 [1]: 0 ± 0 mm3
Average Tumor Size (mm3) ± SEM on Day 28 [1]: 0 ± 0 mm3
Average Tumor Size (mm3) ± SEM on Day 40 [1]: 0 ± 0 mm3
T Cell Activation (% CD25 Upregulation) CD4+ T cells % Activation [2, 7]: 9%
T Cell Activation (% CD25 Upregulation) CD8+ T cells % Activation [2, 7]: 12%
pEC50 ([2]; Cynomolgus Monkey Donor 1 plasma cells, autologous T cells, read-out: T Cell Activation (% CD25 Upregulation) CD8+ T cells EC50): 7.65
Cytotoxic Kill Max % Cytotoxicity ([2]; Cynomolgus Monkey Donor 1 plasma cells, autologous primary cynomolgus T cells, E:T 10:1, 72 hours): 94%
pEC50 ([2]; Cynomolgus Monkey Donor 1 plasma cells, autologous primary cynomolgus T cells, E:T 10:1, 72 hours, read-out: Cytotoxic Kill EC50): 8.88
T Cell Activation (% CD25 Upregulation) CD4+ T cells % Activation ([2]; Cynomolgus Monkey Donor 2 plasma cells, autologous T cells, maximum): 16%
pEC50 ([2]; Cynomolgus Monkey Donor 2 plasma cells, autologous T cells, read-out: T Cell Activation (% CD25 Upregulation) CD4+ T cells EC50): ~7.74
Cytotoxic Kill Max % Cytotoxicity ([2]; Cynomolgus Monkey Donor 2 plasma cells, autologous primary cynomolgus T cells, E:T 10:1, 72 hours): 91%
maximum percent T cell activation, CD4+ T cells ([2]; cynomolgus donor 1): 9%
maximum percent T cell activation, CD8+ T cells ([2]; cynomolgus donor 1): 12%
maximum percent cytotoxicity ([2]; cynomolgus donor 1): 94%
pEC50 ([2]; cynomolgus donor 1, read-out: CD4+ T cell activation EC50): 7.55
pEC50 ([2]; cynomolgus donor 1, read-out: CD8+ T cell activation EC50): 7.65
pEC50 ([2]; cynomolgus donor 1, read-out: cytotoxicity EC50): 8.88
maximum percent T cell activation, CD4+ T cells ([2]; cynomolgus donor 2): 16%
maximum percent cytotoxicity ([2]; cynomolgus donor 2): 91%
pEC50 ([2]; cynomolgus donor 2, read-out: CD4+ T cell activation EC50): 7.74
pEC50 ([2]; cynomolgus donor 2, read-out: CD8+ T cell activation EC50): 7.12
S:N [3]: 8
S:N [4]: 39
anti-tumor efficacy of the combination (in words) (MC38/BCMA tumors [5]): superior anti-tumor efficacy
anti-tumor efficacy of the combination (in words) (MC38/BCMA tumors [6]): superior anti-tumor efficacy

REGN5459: anti-BCMA×anti-CD3 bispecific antibody: BCMA HCVR of mAb21581 (SEQ 66), CD3 HCVR of mAb7221G20 (SEQ 98), common LCVR SEQ 82
Average Tumor Size (mm3) ± SEM on Day 4 [1]: 26.5 ± 6.2 mm3
Average Tumor Size (mm3) ± SEM on Day 7 [1]: 0 ± 0 mm3
Average Tumor Size (mm3) ± SEM on Day 11 [1]: 0 ± 0 mm3
Average Tumor Size (mm3) ± SEM on Day 14 [1]: 0 ± 0 mm3
Average Tumor Size (mm3) ± SEM on Day 18 [1]: 0 ± 0 mm3
Average Tumor Size (mm3) ± SEM on Day 21 [1]: 0 ± 0 mm3
Average Tumor Size (mm3) ± SEM on Day 28 [1]: 0 ± 0 mm3
Average Tumor Size (mm3) ± SEM on Day 40 [1]: 0 ± 0 mm3
